Reference: publication PMC6680510, “Benzotriazine Di-Oxide Prodrugs for Exploiting Hypoxia and Low Extracellular pH in Tumors” (Molecules, 2019)
Like-named read-outs stand apart in the source and are kept apart here.

Assays:
[1] = cited from earlier work
FaDu cells = experiment: IC50 assay (inhibition of proliferation, 4 h exposure, SRB); assay type: cell-based; conditions: for IC50: Homo sapiens, 4 h
SiHa and FaDu cells = experiment: IC50 assay, summary statements over both cell lines; assay type: cell-based; conditions: SiHa and FaDu, anoxia, pHe 6.5; read-out: Potency (IC50) under anoxia at pHe 6.5
Method: Cells were seeded in 96-well plates (SiHa or FaDu 1500 cells/well, UT-SCC-74B 800 cells/well) in 100 μL. After incubation for 2 h, the drugs were added in 50 μL of the same titrated medium at 3× the final concentration to duplicate the wells. After a further 4 h the plates were checked for drug precipitation using a phase contrast microscope, then drugs were removed by aspirating and washing with the standard (pH 7.4) medium, then aspirating again and adding 150 μL of the medium. Cultures were then grown for 5 days before staining with sulphorhodamine B and measuring absorbance, with the estimation of IC50 values using 4-parameter logistic regression, as previously carried out [85].

SiHa cells [2] = experiment: IC50 assay (inhibition of proliferation, 4 h exposure, SRB); conditions: SiHa; for IC50: Homo sapiens, 4 h
Method: Cells were seeded in 96-well plates (SiHa or FaDu 1500 cells/well, UT-SCC-74B 800 cells/well) in 100 μL. After incubation for 2 h, the drugs were added in 50 μL of the same titrated medium at 3× the final concentration to duplicate the wells. After a further 4 h the plates were checked for drug precipitation using a phase contrast microscope, then drugs were removed by aspirating and washing with the standard (pH 7.4) medium, then aspirating again and adding 150 μL of the medium. Cultures were then grown for 5 days before staining with sulphorhodamine B and measuring absorbance, with the estimation of IC50 values using 4-parameter logistic regression, as previously carried out.
The medium and plasticware was equilibrated in the chamber for 3 days prior to use. In the anoxia experiments, FaDu cells were plated in poly-L-lysine coated plates (Corning Cat # 356461) to improve attachment.
Cells were subsequently grown under standard cell culture conditions (oxia, pHe 7.4) for 5 days before staining with sulforhodamine B (SRB). […] (B) SN30000 (2). (C) BTO acid 4a. Values are means and errors are ranges for duplicate cultures in a single experiment. Fitted curves are 4-parameter logistic regressions. PCR = pH cytotoxicity ratio. ACR = anoxia cytotoxicity ratio. TMR = tumor microenvironment ratio.

[3] = One-electron reduction potentials by pulse radiolysis; assay type: physicochemical; conditions: pH 7.0, equilibrium with redox indicator shown in square brackets
Method: One-electron reduction potentials (E^0′) were determined from the redox equilibria with methylviologen, MV^2+, (E^0′ = […], [34]), dimethyldiquat, V21^2+, (E^0′ = […], [35]), or triquat, TQ^2+, (E^0′ = −548 ± 7 mV [34]). […] Substituting the 3-alkanoic sidechain with the 3-aminoalkanoic sidechain on the BTO 1,4-dioxide lowers the E^0′, as does the addition of the cyclopentane ring. The combined effect is seen for 10a, where the E^0′ value is −565 mV, which is expected to be too low for significant bioreduction under hypoxia.
Time-resolved optical absorption and kinetic studies were carried out using the University of Auckland’s 4 MeV linear accelerator, which has been previously described. The one-electron reduction potentials of the compounds (A) and couple E^0′(A/A^−), versus normal hydrogen electrode, were determined at pH 7.0 (2.5 mM phosphate) by establishing redox equilibria within 50 μs between three mixtures of one-electron reduced A and the viologen reference compounds, MV^2+, TQ^2+ and V21^2+. The determined equilibrium constants were used to calculate the ΔE values using the Nernst equation, correcting for ionic strength effects, as described in the literature.

SiHa cells [4] = experiment: Metabolism and uptake of ester 4b in anoxic single cell suspensions; assay type: in vitro ADME; conditions: anoxic SiHa suspensions after addition of 4b (150 μM)
Text: If the anionic sidechain of the BTO acids results in low intracellular concentrations, with reductive metabolism occurring largely at the cell surface, the corresponding esters would be expected to provide improved delivery to the intracellular compartment (consistent with their higher cytotoxic potencies, as noted in Section 2.5). To test this, we compared the metabolism of ester 4b (Figure 7A) with its corresponding acid 4a (Figure 7B) by monitoring extracellular concentrations in anoxic SiHa suspensions. The rates of metabolism of both compounds were unaffected by pHe, consistent with the results for 4a in Figure 5B. The ester was metabolized more rapidly than the acid, with only a trace of acid 4a detected transiently as an extracellular metabolite (Figure 7A). The major metabolites were the less polar 1-oxide, 15a, and the 1-oxide of the ester, 16a. In separate experiments with higher initial concentrations of 4b, 15a was again the main extracellular metabolite (Figure 7C, left). […] Compound 4b itself was not detected in the intracellular samples, presumably reflecting a lack of retention in cells and the very low intracellular volume, which will compromise analytical sensitivity (only 2 × 10^6 cells were collected for each analysis in this experiment).
Figure 7 Metabolism of BTO ester 4b and the corresponding acid 4a by anoxic SiHa single cell suspensions (2 × 10^6 cells/mL). (A) Extracellular concentrations following the addition of 4b (50 μM). (B) Extracellular concentrations following the addition of 4a (50 μM). (C) Extracellular (left) and intracellular (right) concentrations following the addition of 4b (150 μM). Values are means and errors are SEM for 3 replicate cultures.

[5] = Solubility in AlphaMEM + 5% FBS, pH 7.4; conditions: culture medium (AlphaMEM + 5% FBS), pH 7.4, plasma or biological fluid, thermodynamic from solid
[6] = pHe 6.5, 4 h, anoxic, read-out: Anoxic IC50
[7] = pHe 6.5, 4 h, oxic, read-out: Oxic IC50
[8] = pHe 7.4, 4 h, anoxic, read-out: Anoxic IC50
[9] = pHe 7.4, 4 h, oxic, read-out: Oxic IC50
[10] = read-out: Anoxic IC50, SiHa, pHe 6.5, 4 h, anoxic
[11] = read-out: Anoxic IC50, SiHa, pHe 7.4, 4 h, anoxic
[12] = read-out: Oxic IC50, SiHa, pHe 6.5, 4 h, oxic
[13] = read-out: Oxic IC50, SiHa, pHe 7.4, 4 h, oxic

melting point	Structure (SMILES)	TMR (oxic IC50 pHe 7.4/anoxic IC50 pHe 6.5) (FaDu cells)	IC50 (FaDu cells; [6]) [µM]	IC50 (FaDu cells; [7]) [µM]	IC50 (FaDu cells; [8]) [µM]	IC50 (FaDu cells; [9]) [µM]	PCR Anoxic (IC50 at pHe 7.4/IC50 at pHe 6.5) (FaDu cells; anoxic)	PCR oxic (IC50 at pHe 7.4/IC50 at pHe 6.5) (FaDu cells; oxic)	ACR (oxic IC50/anoxic IC50) (FaDu cells; pHe 6.5)	ACR (oxic IC50/anoxic IC50) (FaDu cells; pHe 7.4)	IC50 (SiHa cells [2]; [10]) [µM]	IC50 (SiHa cells [2]; [11]) [µM]	IC50 (SiHa cells [2]; [12]) [µM]	IC50 (SiHa cells [2]; [13]) [µM]	TMR (overall TME ratio = oxic IC50 pHe 7.4/anoxic IC50 pHe 6.5) (SiHa cells [2])	PCR Anoxic (IC50 at pHe 7.4/IC50 at pHe 6.5) (SiHa cells [2])	PCR oxic (IC50 at pHe 7.4/IC50 at pHe 6.5) (SiHa cells [2])	other results
	c1cc[n+]2c(c1)-c1cccc[n+]1CCC2 [triquat, 7,8-dihydrodipyrido-[1,2-a:2′,1′-c][1,4]diazepinedium]																	E^0′ of redox indicator ([1]; reference viologen): −548 ± 7 mV
	Nc1n[n+]([O-])c2ccccc2[n+]1[O-] [Compound 3, tirapazamine, reference compound]	26.2 ± 5.9	6.96 ± 1.38	127 ± 14	5.9 ± 0.48	182 ± 20	0.85 ± 0.18	1.43 ± 0.22	18.3 ± 4.1	30.9 ± 4.2	2.9 ± 0.38	2.81 ± 0.3	91 ± 21	162 ± 8	56 ± 8	0.97 ± 0.16	1.77 ± 0.42	IC50 (SiHa and FaDu cells): 2.9 to 8.6 µM; E^0′ one-electron reduction potential ([1]; pulse radiolysis, redox indicator MV^2+): −456 ± 8 [MV^2+] ^h mV
89 to 91 °C	COC(=O)CCc1n[n+]([O-])c2ccccc2[n+]1[O-] [Compound 4b, 3-(3-Methoxy-3-oxopropyl)benzo[e][1,2,4]triazine 1,4-Dioxide]	42.3 ± 2.6	3.3 ± 0.11	98 ± 12	3.2 ± 0.38	140 ± 7	0.97 ± 0.12	1.43 ± 0.19	29.6 ± 3.8	43.6 ± 5.7	1.8 ± 0.46	1.4 ± 0.1	26.3 ± 7.1	34.4 ± 3.5	19.1 ± 5.3	0.78 ± 0.21	1.31 ± 0.38	E^0′ one-electron reduction potential [3]: −363 ± 7 [MV^2+] mV; Detection in intracellular samples (SiHa cells [4]): not detected; solubility [5]: 17.7 mM; ACR (anoxic cytotoxicity ratio = oxic IC50/anoxic IC50) (SiHa cells [2]; pHe 6.5): 14.5 ± 5.4; ACR (anoxic cytotoxicity ratio = oxic IC50/anoxic IC50) (SiHa cells [2]; pHe 7.4): 24.6 ± 3.1
152 to 154 °C (dec.)	O=C(O)CCc1nc2ccccc2[n+]([O-])n1 [Compound 15a, 3-(2-Carboxyethyl)benzo[e][1,2,4]triazine 1-Oxide]																	Intracellular concentration, fold lower than that of acid 4a (SiHa cells [4]): approximately 10 fold
